Values joined by “and” are separate entries in the source; they are usually repeats but may differ in a detail not shown here. Equal values may be shown once. “Also recorded” adds a separate entry of the source. Read-outs that look alike come from different tables or passages of the source.
Experiments:
[1] = system: chronic methadone subjects; assay: Example 1: side effects, abdominal cramping and central opioid withdrawal; format: in vivo, human
Procedure: Vital signs were obtained at 0, 5, 10, 30, 60, 90 and 120 min after each test drug administration. For oral-cecal transit time measurement, 10 g lactulose (Solvay Pharmaceuticals, Marietta, Ga.) was administered orally at 09:00 h of Day 1, Day 5 and Day 8 for Subject 1; of Day 1 for Subject 2, and of Day 1, Day 3 and Day 5 for Subjects 3 and 4. Illicit drug use was monitored by random urine drug screens.
To evaluate possible opioid withdrawal with methylnaltrexone, subjects were asked to rate on a 5-point scale from 0 (not at all) to 4 (extremely) an […] checklist Withdrawal Scale (Fraser et al., J Pharmacol Exp. Ther., 133:371-387 (1961); Jasinski, Drug Addiction J., 197-258 (1977); both herein incorporated by reference). Items to be rated were: muscle cramps, flushing, painful joints, yawning, restless, watery eyes, runny nose, chills or gooseflesh, sick to stomach, sneezing, abdominal cramps, irritable, backache, tense and jittery, sweating, depressed/sad, sleepy, shaky (hands), hot or cold flashes, and bothered by noises. The ratings for individual items were summed for a total score for each scale. The total scores were compared before and after methylnaltrexone administration to see if there was a significant difference.

[2] = system: chronic methadone subjects; assay: Example 2: side effects, vital signs and opioid withdrawal; format: in vivo, human
Procedure: Vital signs were obtained at 0, 5, 10, 30, 60, 90 and 120 min after each test drug administration. Illicit drug use was monitored by random urine drug screens.
To evaluate possible opioid withdrawal with methylnaltrexone, before and 10 min after the completion of test drug administration, subjects were asked to complete an objective checklist of withdrawal symptoms modified from Fraser et al. (J. Pharmacol Exp. Ther., 133:371-387 (1961)) and Jasinski (Drug Addiction J., 197-258 (1977)). Items rated (none, mild, moderate, severe) were yawning, lacrimation (excessive tearing), rhinorrhea (nasal discharge), perspiration, tremor, piloerection (goosebumps), and restlessness. The ratings for individual items were translated to a 0-3 scale and summed to give a total symptom score. The total scores before and after test drug administrations were compared between the groups. Potential opioid withdrawal symptoms were also monitored by an investigator throughout the study.

[3] = system: constipated methadone maintained patients; assay: Example 3: oral methylnaltrexone, laxation response; format: in vivo, human; settings: for subjects who had a bowel movement: 4 subjects; for time to bowel movement after oral compound: mean±SD
Procedure: (§1) Since oral medication is a safer and more convenient way to deliver drugs than is intravenous administration, the efficacy of oral MNTX in relieving constipation in methadone maintained patients was evaluated. Twelve constipated adults (≦2 stool/week) were enrolled. Their daily methadone dose was 73.3±16.2 mg (41-100 mg), mean±SD (range). On day 1 at 9AM, subjects ingested 10 g lactulose (Solvay Pharmaceuticals) to assess oral-cecal transit time as described above, and a placebo capsule. On day 2 at 9AM, subjects again received lactulose, and a capsule containing methylnaltrexone (Mallinckrodt). Ascending oral methylnaltrexone doses (0.3, 1.0, and 3,0 mg/kg) were given to 3 groups of 4 subjects per group. Drug administrations were single-blinded to the subject. Laxation response and potential opioid withdrawal were recorded and blood samples were collected.

[4] = system: chronic methadone subjects; assay: Example 3: oral methylnaltrexone, oral-cecal transit time; format: in vivo, human
Procedure: The oral-cecal transit time was assessed by the pulmonary hydrogen (H2) measurement technique, which measures pulmonary H2 that is produced when unabsorbed lactulose is fermented by colonic bacteria and excreted in the breath. This H2 production is reflected by a concomitant increase in breath H2 excretion. […] Dis. Sci., 32:829-832 (1987)). Hydrogen breath tests were conducted every 15 min until oral-cecal transit time was determined.
Twelve constipated adults (≦2 stool/week) were enrolled. […] Drug administrations were single-blinded to the subject.

[5] = Example 3: plasma level after oral methylnaltrexone
Procedure: as §1

[6] = system: morphine-induced changes in oral-cecal transit time; assay: Example 4: morphine-induced delay of oral-cecal transit time in subjects given opioids non-chronically; format: in vivo, human; settings: 0.45 mg/kg methylnaltrexone plus 0.05 mg/kg morphine
Procedure: After completion of the above three injections, we asked six of the subjects, beginning with those who had completed the study last, to return for a fourth injection (0.45 mg/kg methylnaltrexone plus 0.1 mg/kg morphine). This was done to evaluate the effects of methylnaltrexone with a higher does of morphine.
Results of the hydrogen breath test after different injections were analyzed with the use of the Wilcoxon matched-pairs signed-rank test, with p<0.05 considered to be statistically significant.

[7] = Example 4: pharmacokinetics of 0.45 mg/kg intravenous methylnaltrexone; settings: per subject (1-12) and Mean ± SD
Procedure: Sessions were separated by at least 1 week. Each session lasted approximately 7 hours, and the subjects received one of three injections: (1) placebo plus placebo, (2) placebo plus 0.05 mg/kg morphine, or (3) 0.45 mg/kg methylnaltrexone plus 0.05 mg/kg morphine. Injection I was given at the first session, and the subjects were blinded to the medication. Injections 2 and 3 were given in a random order, and the subjects and observers were blinded to the medication. Injection assignments were prepared by random selection on a computer and were sealed in envelopes.

normal volunteers [8] = settings: 0.45 mg/kg iv, cited from earlier work
normal volunteers [9] = settings: eight normal volunteers, cited from earlier work
[10] = system: chronic methadone subjects with methadone-induced constipation; assay: Example 2: double-blind placebo-controlled trial of intravenous methylnaltrexone, laxation response; settings: for methylnaltrexone dose received (infusion stopped at bowel movement): mean±SD, range 0.01-0.37
[11] = Subjects 3 and 4, 0.05-0.15 mg/kg iv twice daily, 4 days
[12] = iv methylnaltrexone, #1 0.45 mg/kg bid, #2 0.45 mg/kg, #3 and #4 0.05-0.15 mg/kg bid, iv methylnaltrexone 0.45 mg/kg
[13] = iv methylnaltrexone, #1 0.45 mg/kg bid, #2 0.45 mg/kg, #3 and #4 0.05-0.15 mg/kg bid, iv methylnaltrexone 0.05-0.15, bid mg/kg
[14] = iv methylnaltrexone, #1 0.45 mg/kg bid, #2 0.45 mg/kg, #3 and #4 0.05-0.15 mg/kg bid, iv methylnaltrexone 0.05-015, bid mg/kg
[15] = iv methylnaltrexone, #1 0.45 mg/kg bid, #2 0.45 mg/kg, #3 and #4 0.05-0.15 mg/kg bid, iv methylnaltrexone 0.45, bid mg/kg

C[N@+]1(CC2CC2)CC[C@]23c4c5ccc(O)c4O[C@H]2C(=O)CC[C@@]3(O)[C@H]1C5 [methylnaltrexone, N-methylnaltrexone bromide]
side effects ([1]; Subject 1, 0.45 mg/kg iv, 7 days of administration): did not experience any significant side effects
abdominal cramping ([1]; Subject 1, 0.45 mg/kg iv, after each injection): mild abdominal cramping
signs of systemic withdrawal (lacrimation, diaphoresis, mydriasis, hallucinations) ([1]; Subject 2, single dose 0.45 mg/kg iv): no signs of systemic withdrawal
abdominal cramping ([1]; Subject 2, single dose 0.45 mg/kg iv over 1 min): severe abdominal cramping
abdominal cramping [1, 11]: mild abdominal cramping
side effects [1, 11]: No significant side effects were observed
Central opioid withdrawal [1, 12]: No
abdominal cramping [1, 12]: Severe
Central opioid withdrawal [1, 13]: No
abdominal cramping [1, 13]: Mild
Central opioid withdrawal [1, 14]: No
abdominal cramping [1, 14]: Mild
Central opioid withdrawal [1, 15]: No
abdominal cramping [1, 15]: Mild
abdominal cramping during and immediately after injection ([2]; all subjects of methylnaltrexone group, iv): mild to moderate abdominal cramping
change in blood pressure or heart rate from baseline ([2]; study drug infusion): No subject demonstrated any clinically significant change
subjects who had a bowel movement ([3]; oral 0.3 mg/kg): 3 out of 4
time to bowel movement after oral compound ([3]; oral 0.3 mg/kg, range 8-24 hr): 18.0 ± 8.7 h
subjects who had a bowel movement ([3]; oral 1.0 mg/kg): All subjects
time to bowel movement after oral compound ([3]; oral 1.0 mg/kg, range 3-24 hr): 12.3 ± 8.7 h
subjects who had a bowel movement ([3]; oral 3.0 mg/kg): All subjects
time to bowel movement after oral compound ([3]; oral 3.0 mg/kg, range 1.2-10 hr): 5.2 ± 4.5 h
reduction in oral-cecal transit time ([4]; methadone subjects, dose of 3.0 mg/kg (FIG. 5)): greater than 35%
dose-related reduction of oral-cecal transit times ([4]; oral 0.3, 1.0, 3.0 mg/kg, p<0.05, Spearman rank correlation and linear regression): significant dose-response effect
Peak plasma level ([5]; 4 subjects with detectable level (one 1.0 mg/kg, three 3.0 mg/kg oral), mean±SD, range 10-26): 17.8 ± 6.6 ng/mL
subjects with undetectable methylnaltrexone in plasma ([5]; of 12 subjects, oral 0.3-3.0 mg/kg): Eight
oral-cecal transit time ([6]; 12 subjects, mean±SD, not significant vs baseline 104.6±31.1): 106.3 ± 39.8 min
prevention of morphine-induced changes in oral-cecal transit time ([6]; p<0.01 vs morphine alone): 97%
AUC ([7]; human, in vivo, iv, 0.45 mg/kg, AUC, area under the plasma concentration-time curve from 0 to 6 hours): 549 ng·h/mL
AUC, area under the plasma concentration-time curve from 0 to 6 hours [7]: 694 ng·h/mL and 595 ng·h/mL and 637 ng·h/mL and 588 ng·h/mL and 1013 ng·h/mL and 634 ng·h/mL and 587 ng·h/mL and 747 ng·h/mL and 677 ng·h/mL and 742 ng·h/mL and 658 ng·h/mL
CL, total body clearance [7]: 51.7 L/h and 61.6 L/h and 41.6 L/h and 62.2 L/h and 68.1 L/h and 28.4 L/h and 73.2 L/h and 43.0 L/h and 45.2 L/h and 46.5 L/h and 47.8 L/h and 60.1 L/h
Cmax, peak free plasma concentration [7]: 2111 ng/mL and 4309 ng/mL and 1921 ng/mL and 2418 ng/mL and 5471 ng/mL and 4076 ng/mL and 3443 ng/mL and 2993 ng/mL and 3059 ng/mL and 3119 ng/mL and 4033 ng/mL and 2640 ng/mL
Fu, percentage of dose excreted unchanged in urine from 0 to 3 hours [7]: 33.8% and 36.5% and 43.5% and 26.6% and 49.6% and 73.4% and 44.4% and 46.0% and 39.5% and 40.4% and 35.1% and 34.0%
t1/2β, terminal half-life [7]: 2.077 h and 2.71 h and 3.385 h and 3.968 h and 1.42 h and 1.56 h and 1.903 h and 2.53 h and 1.875 h and 1.772 h and 1.6 h and 1.46 h
effect on opioid-induced delay in oral-cecal transit time (normal volunteers [8]; healthy volunteers, acute single doses): effectively prevented opioid-induced delay in oral-cecal transit time
effect on analgesia (normal volunteers [8]; healthy volunteers): without affecting analgesia
Laxation response (normal volunteers [8]; normal opioid naive subjects): without any laxation response
side effects (normal volunteers [9]; doses of 0.64 to 1.25 mg/kg): transient orthostatic hypotension
side effects (normal volunteers [9]; doses up to 0.32 mg/kg): did not cause side effects
methylnaltrexone dose received (infusion stopped at bowel movement) ([10]; Day 1, iv): 0.09 ± 0.10 mg/kg
methylnaltrexone dose received (infusion stopped at bowel movement) ([10]; Day 2, iv): 0.10 ± 0.10 mg/kg
Bowel movement Satisfaction ([10]; MNTX group, end of study, listed as MNTX): Very satisfied; also recorded: Somewhat satisfied
satisfaction with bowel movement activity at the end of the study ([10]; methylnaltrexone group): all 11 subjects were satisfied
subjects whose stool was soft to loose and in large quantity ([10]; methylnaltrexone group): over 90%

From patent US6559158B1, “Use of methylnaltrexone and related compounds to treat chronic opioid use side affects” (UR Labs, Inc., priority 1997, dated 2003)
